Experimental data taken from PubChem BioAssay AID330 (DTP/NCI, 2004).
Values joined by “and” are separate entries in the source; they are usually repeats but may differ in a detail not shown here. Equal values may be shown once. Inconclusive results and toxic doses are left out. How the source made its calls: active means survival T/C of 150% or more; inactive means T/C below 125% in these data.

Tested on: P388 leukemia ip, CD2F1 mice, survival T/C
Assay: NCI In Vivo Anticancer Drug Screen. Data for tumor model P388 Leukemia (intraperitoneal) in CD2F1 (CDF1) mice
Settings: endpoint: median survival time, higher = longer survival
In short: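 Mice carrying the transplanted tumor received test compound or vehicle. Survival was recorded in each group, and the value is the treated-group measurement divided by that of the vehicle-treated control group.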

[1] = dose: 50.0 mg/kg/injection, schedule: Q01DX009 (ip), vehicle: saline with Tween-80
[2] = dose: 100.0 mg/kg/injection, schedule: Q01DX009 (ip), vehicle: saline with Tween-80
[3] = dose: 200.0 mg/kg/injection, schedule: Q01DX009 (ip), vehicle: saline with Tween-80
[4] = dose: 50.0 mg/kg/injection, schedule: Q01DX005 (ip), vehicle: saline with Tween-80
[5] = dose: 50.0 mg/kg/injection, schedule: Q01DX009 (ip), vehicle: saline
[6] = dose: 100.0 mg/kg/injection, schedule: Q01DX005 (ip), vehicle: saline with Tween-80
[7] = dose: 200.0 mg/kg/injection, schedule: Q01DX005 (ip), vehicle: saline with Tween-80

Measured: T/C

COc1cc[c]([Sb]2([c]3ccc(OC)cc3)([c]3ccc(OC)cc3)[NH]c3cc(C(c4ccccc4)(c4ccccc4)c4ccccc4)cc(C(C)(C)C)c3[O]2)cc1
inactive: [1] 100 % of control | [2] 99 % of control | [3] 100 % of control

N=C(/C(=C/c1ccccc1)c1ccccc1)c1ccccc1
inactive: dose: 50.0 mg/kg/injection, schedule: Q01DX009 (ip), vehicle: Klucel (hydroxypropylcellulose) (HPC) 107 % of control | dose: 100.0 mg/kg/injection, schedule: Q01DX009 (ip), vehicle: Klucel (hydroxypropylcellulose) (HPC) 113 % of control | dose: 200.0 mg/kg/injection, schedule: Q01DX009 (ip), vehicle: Klucel (hydroxypropylcellulose) (HPC) 118 % of control

COC(=O)CCC(=O)C(C#N)c1ccc(CC#N)cc1 (centres undefined)
inactive: dose: 12.5 mg/kg/injection, schedule: Q01DX005 (ip), vehicle: saline with Tween-80 96 % of control | dose: 25.0 mg/kg/injection, schedule: Q01DX005 (ip), vehicle: saline with Tween-80 98 % of control | [4] 102 % of control and 95 % of control

CN1CC2Cc3ccc(O)cc3C(C)(C2)C1 (centres undefined)
inactive: dose: 12.5 mg/kg/injection, schedule: Q01DX009 (ip), vehicle: saline 98 % of control | dose: 25.0 mg/kg/injection, schedule: Q01DX009 (ip), vehicle: saline 96 % of control | [1] 87 % of control | [5] 98 % of control

Cc1c([N+](=O)[O-])oc2c1C(=O)c1ccccc1C2=O
inactive: dose: 15.0 mg/kg/injection, schedule: Q01DX005 (ip), vehicle: Klucel (hydroxypropylcellulose) (HPC) 95 % of control | dose: 30.0 mg/kg/injection, schedule: Q01DX005 (ip), vehicle: Klucel (hydroxypropylcellulose) (HPC) 95 % of control | dose: 60.0 mg/kg/injection, schedule: Q01DX005 (ip), vehicle: Klucel (hydroxypropylcellulose) (HPC) 95 % of control and 96 % of control | dose: 120.0 mg/kg/injection, schedule: Q01DX005 (ip), vehicle: Klucel (hydroxypropylcellulose) (HPC) 102 % of control

COc1cccc2c1C(=O)c1c(O)c3c(c(O)c1C2=O)CC(O)(C(=O)CBr)CC3OC1CC(OC(C)=O)C(OC(C)=O)C(C)O1 (centres undefined)
inactive: dose: 3.13 mg/kg/injection, schedule: Q04DX003 (ip), vehicle: distilled water + Tween-80 108 % of control | dose: 6.25 mg/kg/injection, schedule: Q04DX003 (ip), vehicle: distilled water + Tween-80 98 % of control | dose: 12.5 mg/kg/injection, schedule: Q04DX003 (ip), vehicle: distilled water + Tween-80 106 % of control | dose: 25.0 mg/kg/injection, schedule: Q04DX003 (ip), vehicle: distilled water + Tween-80 109 % of control | dose: 50.0 mg/kg/injection, schedule: Q04DX003 (ip), vehicle: distilled water + Tween-80 105 % of control

COc1ccc2c3c(cnc2c1)P(C)(=O)CC3 (centres undefined)
inactive: [5] 101 % of control | dose: 100.0 mg/kg/injection, schedule: Q01DX009 (ip), vehicle: saline 96 % of control | dose: 200.0 mg/kg/injection, schedule: Q01DX009 (ip), vehicle: saline 102 % of control

CCCCCCCN(CCCCCCC)CC(O)c1cc2ccccc2c2cc(Br)ccc12 (centres undefined)
inactive: [4] 109 % of control | [6] 104 % of control | [7] 99 % of control

CN(C)CCCN(c1ccccc1)c1ccccc1
inactive: dose: 50.0 mg/kg/injection, schedule: Q01DX005 (ip), vehicle: Klucel (hydroxypropylcellulose) (HPC) 98 % of control | dose: 100.0 mg/kg/injection, schedule: Q01DX005 (ip), vehicle: Klucel (hydroxypropylcellulose) (HPC) 98 % of control | dose: 200.0 mg/kg/injection, schedule: Q01DX005 (ip), vehicle: Klucel (hydroxypropylcellulose) (HPC) 98 % of control

CC(Sc1ccccn1)C(=O)c1ccccc1 (centres undefined)
inactive: [4] 102 % of control | [6] 109 % of control | [7] 102 % of control

O=[N+]([O-])c1ccc(Cl)nc1
inactive: dose: 22.0 mg/kg/injection, schedule: Q01DX009 (ip), vehicle: saline with Tween-80 103 % of control | dose: 33.0 mg/kg/injection, schedule: Q01DX009 (ip), vehicle: saline with Tween-80 97 % of control | [1] 91 % of control | dose: 75.0 mg/kg/injection, schedule: Q01DX009 (ip), vehicle: saline with Tween-80 99 % of control | dose: 100.0 mg/kg/injection, schedule: Q04DX003 (ip), vehicle: saline sonified 100 % of control | dose: 200.0 mg/kg/injection, schedule: Q04DX003 (ip), vehicle: saline sonified 95 % of control | dose: 400.0 mg/kg/injection, schedule: Q04DX003 (ip), vehicle: saline sonified 90 % of control

O=[N+]([O-])c1ccc(C(O)C(Br)[N+](=O)[O-])cc1 (centres undefined)
inactive: [2] 104 % of control | [3] 104 % of control | dose: 400.0 mg/kg/injection, schedule: Q01DX009 (ip), vehicle: saline with Tween-80 95 % of control
